{"source": "patent US9879278B2", "about": "“Non-viral episomal suicide construct” (WAKE FOREST UNIVERSITY HEALTH SCIENCES, priority 2012, dated 2018)", "key": {"[1]": {"test_system": "NCCIT cells", "experiment": "OCT4 immunofluorescence of RA-differentiated cells with ganciclovir"}, "[2]": {"test_system": "NCCIT (pSuicide) cells", "experiment": "Cell survival under ganciclovir treatment", "assay_type": "cell-based, human", "procedure": "(§1) NCCIT and HeLa cells with and without pSuicide episomal DNA were treated with and without 2 μmol/L ganciclovir. Cell numbers and morphology were compared 7 days after treatment."}, "[3]": {"test_system": "tumors from NCCIT (pSuicide) cells", "experiment": "In vivo ganciclovir treatment of tumors", "parameters": "species or system SCID mice", "procedure": "(§2) Trypsinized cells washed in PBS were resuspended in ice-cold PBS containing 30% BD Matrigel (BD Biosciences), drawn into an ice-cold 1-mL syringe, and kept on ice for subcutaneous injection into 8-˜12-week-old female immunodeficient SCID mice (Charles River Laboratories, Wilmington, Mass.) as previously described (Prokhorova et al., 2009, Stem Cells Dev 2009; 18:47-54). For undifferentiated NCCIT and NCCIT (pSuicide) cells, 1.5×10^6 cells in 100 μl volume were injected for each mouse. For differentiated NCCIT (pSuicide) cells, 3×10^6 cells were injected. When tumors reached about 8 mm in size, ganciclovir (50 mg/kg body weight) was delivered intraperitoneally daily for 2-3 weeks. Each tumor was regarded as a prolate spheroid and the greatest longitudinal diameter (L) and greatest transverse diameter (B) were monitored with a caliper every 2 days by the same person. The two dimensions were to lie perpendicular to each other in a plane tangential to the body wall. Tumor size was estimated from the formula V=½(L×B^2) as previously described (Euhus et al., 1986, J Surg Oncol 31:229-34). The size of tumors formed by NCCIT and NCCIT (pSuicide) cells was compared by analysis of variation (ANOVA), setting as 1 the volume on the day ganciclovir was first delivered."}, "[4]": {"test_system": "tumors from NCCIT cells", "experiment": "In vivo ganciclovir treatment of tumors", "parameters": "species or system SCID mice", "procedure": "as §2"}, "[5]": {"test_system": "RA-differentiated NCCIT(pSuicide) cells", "experiment": "Tumor development from RA-differentiated NCCIT(pSuicide) cells with or without in vitro ganciclovir selection", "assay_type": "in vivo, SCID mice", "procedure": "(§3) One aliquot of cells was maintained in differentiation medium containing 2 μmol/L ganciclovir for 7 days (for in vitro immuno-analysis) or 14 days (for in vivo tumor formation). As a negative control, counterpart cells were grown in differentiation medium containing 0.1% DMSO in which ganciclovir is dissolved.\nTrypsinized cells washed in PBS were resuspended in ice-cold PBS containing 30% BD Matrigel (BD Biosciences), drawn into an ice-cold 1-mL syringe, and kept on ice for subcutaneous injection into 8-˜12-week-old female immunodeficient SCID mice (Charles River Laboratories, Wilmington, Mass.) as previously described (Prokhorova et al., 2009, Stem Cells Dev 2009; 18:47-54). For undifferentiated NCCIT and NCCIT (pSuicide) cells, 1.5×10^6 cells in 100 μl volume were injected for each mouse. For differentiated NCCIT (pSuicide) cells, 3×10^6 cells were injected.\nWhen tumors reached about 8 mm in size, ganciclovir (50 mg/kg body weight) was delivered intraperitoneally daily for 2-3 weeks. Each tumor was regarded as a prolate spheroid and the greatest longitudinal diameter (L) and greatest transverse diameter (B) were monitored with a caliper every 2 days by the same person. The two dimensions were to lie perpendicular to each other in a plane tangential to the body wall. Tumor size was estimated from the formula V=½(L×B^2) as previously described (Euhus et al., 1986, J Surg Oncol 31:229-34). The size of tumors formed by NCCIT and NCCIT (pSuicide) cells was compared by analysis of variation (ANOVA), setting as 1 the volume on the day ganciclovir was first delivered."}, "[6]": {"test_system": "NCCIT cells", "experiment": "Flow cytometry of OCT4-expressing cells after RA and ganciclovir", "assay_type": "cell-based, human", "procedure": "as §3\n(§4) Cells were trypsinized and about 5×10^5 cells were fixed in 2% paraformaldehyde for 10 min at room temperature. Cells were pelleted and permeabilized by resuspension with vigorous vortexing in 500 μl iced-cold methanol and incubated at 4° C. for at least 10 min. After 3 washes with staining buffer (PBS with 1% BSA), the cells were resuspended in 100 μl OCT4 antibody (Santa Cruz Biotechnology), diluted to 1:100 with staining buffer, and incubated for 30 min at 4° C. The cells were washed 3 times with staining buffer and incubated in 1:300 diluted Cy5-conjugated goat anti-mouse Fab for 30 min at 4° C. The cells were assessed for OCT4 expression using a BD FACSCalibur cytometer (BD Biosciences) with CellQuest software."}, "[7]": {"test_system": "NCCIT (pSuicide) cells", "experiment": "Flow cytometry of OCT4-expressing cells after RA and ganciclovir", "assay_type": "cell-based, human", "procedure": "as §3, §4"}, "[8]": {"test_system": "NCCIT cells", "experiment": "Western blotting of OCT4A after RA-induced differentiation and ganciclovir", "assay_type": "cell-based, human", "details": "ganciclovir added to RA-induced NCCIT cells", "procedure": "as §3\n(§5) Cells were lysed in RIPA buffer with protease inhibitors (0.5 mmol/L PMSF and 1×Complete Protease Inhibitor Cocktail from Roche) for SDS-PAGE and Western blotting analyses. Monoclonal anti-β-actin antibody was from Sigma and used at 1:5000 (St Louis, Mo.). Rabbit anti-HSV thymidine kinase antiserum was obtained from Dr. William Summers of Yale University (1:5000); anti-OCT4A antibody was from Santa Cruz Biotechnology (Santa Cruz, Calif.) and used at 1:1000. Horseradish peroxidase (HRP)-conjugated secondary antibodies (1:1000) were purchased from Pierce (Rockford, Ill.). Chemiluminescent reagents from Pierce were used to visualize the protein signals on an LAS-3000 imaging system (Fujifilm). The Integrated Density function (Image J software) was used to quantify the expression of individual proteins after normalized by β-actin."}, "[9]": {"test_system": "NCCIT (pSuicide) cells", "experiment": "Western blotting of OCT4A after RA-induced differentiation and ganciclovir", "assay_type": "cell-based, human", "details": "RA-induced NCCIT (pSuicide) cells treated with ganciclovir", "procedure": "as §3, §5"}, "[10]": {"test_system": "NCCIT (pSuicide) cells", "experiment": "OCT4 immunofluorescence of RA-differentiated cells with ganciclovir", "assay_type": "cell-based, human", "procedure": "as §3\nBriefly, differentiated NCCIT cells growing on chamber slides were fixed in 4% PFA for 15 min at room temperature and permeabilized in 0.2% Triton X-100/PBS for 10 min. After blocking with 10% horse serum, cells were incubated with 3%0/horse serum diluted (1:50) OCT4 antibody (Santa Cruz Biotechnology) for 1 h at room temperature, followed by three washes in PBS-T (0.1% Tween 20 in phosphate-buffered saline). […] Images were captured under a fluorescent microscope."}, "[11]": {"test_system": "HeLa (pSuicide) cells", "experiment": "Cell survival under ganciclovir treatment", "assay_type": "cell-based", "procedure": "as §1"}, "[12]": {"details": "2 μmol/L ganciclovir for 7 days"}, "[13]": {"details": "3 × 10^6 cells/mouse, SCID mice"}}, "note": "Values joined by “and” are separate entries in the source; they are usually repeats but may differ in a detail not shown here. Equal entries are not always repeated. “Also recorded” adds a separate entry of the source."}
{"smiles": "Nc1nc(O)c2ncn(COC(CO)CO)c2n1", "note": "[ganciclovir]", "values": [{"measurement": "elimination of OCT4A-positive cells", "setting": "[1]; 2 μmol/L ganciclovir for 7 days after 10 days RA", "value": "did not eliminate"}, {"measurement": "cell killing", "setting": "[2]; [12]", "value": "killed"}, {"measurement": "proliferation", "setting": "[2]; ganciclovir treatment", "value": "affected"}, {"measurement": "Tumors responded to ganciclovir", "setting": "[3]; NCCIT(pSuicide)-derived tumors, ganciclovir 50 mg/kg intraperitoneally daily", "value": "4/4"}, {"measurement": "tumor growth", "setting": "[3]; tumors from NCCIT (pSuicide) cells, ganciclovir 50 mg/kg i.p. daily for two weeks", "value": "stopped growing; also recorded: inhibited growth"}, {"measurement": "tumor growth", "setting": "[3]; two mice with tumors from differentiated NCCIT (pSuicide) cells treated with ganciclovir", "value": "inhibited"}, {"measurement": "Tumors responded to ganciclovir", "setting": "[4]; NCCIT-derived tumors, ganciclovir 50 mg/kg intraperitoneally daily", "value": "0/7"}, {"measurement": "tumor growth", "setting": "[4]; tumors from NCCIT cells, ganciclovir 50 mg/kg i.p. daily for two weeks", "value": "continued to grow and not"}, {"measurement": "mice that developed tumors of mice injected with ganciclovir-treated cells", "setting": "[5]; cells treated with ganciclovir for 14 days before injection, 3 months after injection", "value": "1 of 12 and 1/14"}, {"measurement": "percentage of OCT4A-positive cells", "setting": "[6]; RA-treated NCCIT cells after ganciclovir treatment", "value": "30.18%±2.46%"}, {"measurement": "percentage of OCT4A-positive cells", "setting": "[7]; RA-treated NCCIT (pSuicide) cells after ganciclovir treatment", "value": "2.27%±0.12%"}, {"measurement": "OCT4A expression", "setting": "[8]", "value": "did not reduce"}, {"measurement": "OCT4A expression", "setting": "[9]", "value": "undetectable"}, {"measurement": "elimination of OCT4A-positive cells", "setting": "[10]; 2 μmol/L ganciclovir for 7 days after 10 days RA, NCCIT (pSuicide) cells", "value": "eliminated"}, {"measurement": "cells with nuclear staining of OCT4A antibody", "setting": "[10]; 1670 immunostained ganciclovir-treated NCCIT (pSuicide) cells examined", "value": "none"}, {"measurement": "cell killing", "setting": "[11]; [12]", "value": "not"}, {"measurement": "proliferation", "setting": "[11]; ganciclovir treatment", "value": "not affected and not"}]}
{"smiles": "CC1=C(/C=C/C(C)=C/C=C/C(C)=C/C(=O)O)C(C)(C)CCC1", "note": "[RA, retinoic acid]", "values": [{"measurement": "cells induced to differentiate (OCT4A-negative)", "setting": "[1]; 20 μmol/L retinoic acid", "value": "about 50%"}, {"measurement": "No. mice with tumor 0-3 Months postinjection", "setting": "[5]; [13]", "value": 6}, {"measurement": "No. mice with tumor 3-5 Months postinjection", "setting": "[5]; [13]", "value": 1}, {"measurement": "No. mice with tumor Total", "setting": "[5]; [13]", "value": 7}, {"measurement": "OCT4A-positive cells", "setting": "[6]; after RA induction, NCCIT cells", "value": "40-60%"}, {"measurement": "percentage of OCT4A-positive cells", "setting": "[7]; RA-treated NCCIT (pSuicide) cells before ganciclovir treatment", "value": "59.10%±0.5%"}, {"measurement": "OCT4A-positive cells", "setting": "[7]; after RA induction, NCCIT (pSuicide) cells", "value": "40-60%"}, {"measurement": "cells induced to differentiate (OCT4A-negative)", "setting": "[10]; 20 μmol/L retinoic acid, NCCIT (pSuicide) cells", "value": "about 50%"}]}
